Experimental findings from ChEMBL document CHEMBL1133991, “Bioisosteres of 9-carboxymethyl-4-oxo-imidazo[1,2-a]indeno-[1,2-e]pyrazin-2-carboxylic acid derivatives. Progress towards selective, potent in vivo AMPA antagonists with longer durations of action” (Bioorg Med Chem Lett, 2001) are described below.

In general, ED50 refers to the dose at which the effect has come halfway, by size or by number of responders. By IC50 is commonly meant the point on the concentration scale where inhibition reaches its midpoint. Low readings indicate greater potency in that assay, high ones weaker potency in that assay.

The species entered for assay [1] is Mus musculus. Nature of the assay: (§1) Dose which protected 50 % of the mice from a tonic convulsion. The assay is classed as functional.
The target of assay [2] is T1, Glutamate receptor ionotropic, AMPA (Rattus norvegicus, UniProt P19490+P19491+P19492+P19493).
Description: Affinity towards Ionotropic glutamate receptor AMPA using [3H]AMPA as ligand on rat cortical membrane preparations
Assay [3] relates to Mus musculus. Nature of the assay: Dose which protected 50 % of the mice from a tonic convulsion, pretreatment was before 3 hr by i.v. administration in MES test at 40 mg/kg (Inactive). The format is functional, organism-based. Also noted: dose 40 mg/kg.
Another assay deals with Glutamate NMDA receptor. Nature of the assay: In vitro binding affinity towards NMDA glutamate receptor using [3H]5,7-dichlorokynurenate as ligand on rat cortical membrane preparations.
Assay [4] is filed under the species Mus musculus. The assay is described as §1. The format is functional. This is another data set of the same source.
Assay [5] has as its system Mus musculus. Nature of the assay: Dose which protected 50 % of the mice from a tonic convulsion, pretreatment was before 3 hr by i.v. administration in MES test. The assay is classed as functional. As to conditions: iv.
Assay [6] concerns the target T1, Glutamate receptor ionotropic, AMPA. The source holds these as a separate data set.
Description: Compound was evaluated for potent antagonist intrinsic activity against Ionotropic glutamate receptor AMPA

Calls of active or inactive are those of the source. No cut-off for these calls is given here. Where only a bound is given, the exact number is not on record here.

Take `O=C(O)[C@@H]1C[C@H]2C[C@@H](CCc3nn[nH]n3)CC[C@H]2CN1` [TEZAMPANEL ANHYDROUS]: the ED50 in the assay listed under Mus musculus [1] turned out to be 3.4 mg/kg.

Turning to `O=C(O)c1cn2c3c(nc(O)c2n1)-c1cccc(Cc2nn[nH]n2)c1C3`, the IC50 in assay [2] amounted to 0.015 µM; at Glutamate NMDA receptor, 0.537 µM. In addition, the ED50 result in the assay on Mus musculus [3] is “inactive”. For the same molecule, the figures for the ED50 in the assay listed under Mus musculus [1] and in the assay filed under Mus musculus [4] were 2 mg/kg and 2.3 mg/kg, respectively.

On to `O=C(O)Cc1cccc2c1Cc1c-2nc(O)c2nc(CP(=O)(O)O)cn12`, for which the IC50 in assay [2] was 0.147 µM; on Glutamate NMDA receptor, > 10 µM. Further, the ED50 with Mus musculus [5] came out at 22.4 mg/kg; in the assay filed under Mus musculus [1], 2.5 mg/kg; in the assay listed under Mus musculus [4], 4.7 mg/kg.

For `O=C(O)Cc1cccc2c1Cc1c-2nc(O)c2nc(P(=O)(O)O)cn12`, the values for the IC50 (in assay [2]; at Glutamate NMDA receptor) were 0.15 µM and > 10 µM, respectively. Further, the results for the ED50 with Mus musculus [5], in the assay filed under Mus musculus [1] and in the assay listed under Mus musculus [4] were 3.5 mg/kg, 2.9 mg/kg and 3.5 mg/kg, respectively.

With `CS(=O)(=O)NC(=O)Cc1cccc2c1Cc1c-2nc(O)c2nc(C(=O)O)cn12`, the values for the IC50 (in assay [2]; at Glutamate NMDA receptor) were 0.235 µM and 1.2 µM, respectively.

As to `O=C(O)Cc1cn2c3c(nc(O)c2n1)-c1cccc(CC(=O)O)c1C3`, the ED50 with Mus musculus [5] was determined as 28 mg/kg; in the assay filed under Mus musculus [1] it was 0.5 mg/kg.

As to `CNC(=O)Cc1cccc2c1Cc1c-2nc(O)c2nc(C(=O)O)cn12`, the IC50 in assay [2] is 0.189 µM; on Glutamate NMDA receptor, 0.328 µM. In addition, the ED50 was > 20 mg/kg with Mus musculus [5], 5 mg/kg in the assay listed under Mus musculus [1] and 10 mg/kg in the assay listed under Mus musculus [4].

For `O=C(O)CCc1cn2c3c(nc(O)c2n1)-c1cccc(CC(=O)O)c1C3`, the IC50 was determined as 0.031 µM in assay [2] and 1.6 µM on Glutamate NMDA receptor. Besides, it took a dose of 1.9 mg/kg to reach the 50% effect level in the assay listed under Mus musculus [4] (ED50).

Consider `O=C(O)Cc1cccc2c1Cc1c-2nc(O)c2nc(-c3ccccc3C(=O)O)cn12`, for which the IC50 in assay [2] turned out to be 0.1 µM; at Glutamate NMDA receptor it was 6.1 µM.

Turning to `O=c1[nH]c2cc(-n3ccnc3)c([N+](=O)[O-])cc2[nH]c1=O` [YM-90K], the ED50 in the assay on Mus musculus [5] was > 40 mg/kg.

In the case of `O=C(O)/C=C/c1cn2c3c(nc(O)c2n1)-c1cccc(CC(=O)O)c1C3`, the results for the IC50 (in assay [2]; at Glutamate NMDA receptor) were 0.03 µM and > 10 µM, respectively. Moreover, the results for the ED50 in the assay with Mus musculus [5], in the assay listed under Mus musculus [1] and in the assay listed under Mus musculus [4] were 25.6 mg/kg, 3.8 mg/kg and 2.2 mg/kg, respectively.

Regarding `O=C(O)Cc1cccc2c1Cc1c-2nc(O)c2nc(C(=O)O)cn12`, the ED50 with Mus musculus [5] was determined as 25.6 mg/kg.

Consider `O=C(O)c1cn2c3c(nc(O)c2n1)-c1cccc(CP(=O)(O)O)c1C3`, for which the results for the IC50 (in assay [2]; at Glutamate NMDA receptor) were 0.586 µM and > 10 µM, respectively. This molecule also yielded an ED50 in the assay listed under Mus musculus [4] of 5.6 mg/kg.

As to `O=P(O)(O)c1cn2c3c(nc(O)c2n1)-c1cccc(Cc2nn[nH]n2)c1C3`, the IC50 in assay [6] was determined as 0.006 µM; in assay [2], 0.013 µM; on Glutamate NMDA receptor, 2.36 µM. For the same molecule, the results for the ED50 in the assay with Mus musculus [5], in the assay listed under Mus musculus [1] and in the assay filed under Mus musculus [4] were 3.5 mg/kg, 0.8 mg/kg and 1 mg/kg, respectively.

Turning to `O=C(Cc1cccc2c1Cc1c-2nc(O)c2nc(C(=O)O)cn12)NS(=O)(=O)c1ccccc1`, the half-inhibitory concentration (IC50) in assay [2] was determined as 0.139 µM; on Glutamate NMDA receptor, 2 µM.

In the case of `O=C(O)Cc1cccc2c1Cc1c-2nc(O)c2nc(-c3cccc(C(=O)O)c3)cn12`, the concentration for half-maximal inhibition (IC50) in assay [2] is 0.04 µM; on Glutamate NMDA receptor it was 7.2 µM. The same molecule showed an ED50 in the assay listed under Mus musculus [4] of 8.6 mg/kg.

For the molecule `O=C(O)Cc1cccc2c1Cc1c-2nc(O)c2nc(-c3ccc(C(=O)O)cc3)cn12`, the IC50 in assay [2] was 0.012 µM; on Glutamate NMDA receptor it was 5.8 µM. Moreover, the ED50 in the assay on Mus musculus [5] came out at 15 mg/kg; in the assay listed under Mus musculus [1], 5 mg/kg; in the assay listed under Mus musculus [4] it was 5 mg/kg.
